From PMC4968608 (Cancer Science, 2016)
Marks after values point to notes of the source that are not given here. One block for each compound: values may come before it.

How the values were obtained:
[1] = Trough plasma letrozole concentrations, part 2; format: in vivo, human
[2] = Plasma palbociclib concentrations with letrozole, part 2; format: in vivo, human; settings: palbociclib 125 mg + letrozole 2.5 mg once daily, multiple doses, part 2, day 15 of cycles 1 and 2
[3] = Plasma palbociclib pharmacokinetics, part 1; format: in vivo, human; settings: for AUC(0-t): geometric mean (geometric %CV); for half-life: t½, arithmetic mean ± SD
[4] = tested on: estrogen receptor‐positive (ER+) luminal breast cancer cell lines; settings: cited from earlier work
[5] = tested on: Japanese patients with advanced solid tumors; assay: Dose-limiting toxicity and MTD determination, part 1; format: in vivo, human; settings: cycle 1; for DLT: stage IV, person
[6] = tested on: Japanese patients with advanced solid tumors; assay: Treatment-related adverse events, part 1; format: in vivo, human; settings: for Any AE (treatment-related), All grades / Any AE (treatment-related), Grade 3/4 / Blood creatinine increased (treatment-related AE), All grades / Blood creatinine increased (treatment-related AE), Grade 3/4 / Diarrhea (treatment-related AE), All grades / Diarrhea (treatment-related AE), Grade 3/4 / Fatigue (treatment-related AE), All grades / Fatigue (treatment-related AE), Grade 3/4 / Lymphocytes decreased (treatment-related AE), All grades / Lymphocytes decreased (treatment-related AE), Grade 3/4 / Neutropenia (treatment-related), all grades / Neutropenia (treatment-related), grade 3/4 / Neutrophils decreased (treatment-related AE), All grades / Neutrophils decreased (treatment-related AE), Grade 3/4 / Platelets decreased (treatment-related AE), All grades / Platelets decreased (treatment-related AE), Grade 3/4 / WBCs decreased (treatment-related AE), All grades / WBCs decreased (treatment-related AE), Grade 3/4: part 1, n = 6
advanced solid tumors = assay: Antitumor activity; format: in vivo, human
[7] = 100 mg, part 1, patient: breast cancer (first listed)

- Predose plasma letrozole concentration, geometric mean Ctrough ([1]; letrozole 2.5 mg alone, part 2, day 1 of cycles 2 and 3): 146 ^† ng/mL
- Predose plasma letrozole concentration, geometric mean Ctrough ([1]; palbociclib 125 mg + letrozole 2.5 mg, part 2, day 15 of cycles 1 and 2): 131 ^‡ ng/mL
SMILES: N#Cc1ccc(C(c2ccc(C#N)cc2)n2cncn2)cc1 [letrozole]

SMILES: CC(=O)c1c(C)c2cnc(Nc3ccc(N4CCNCC4)cn3)nc2n(C2CCCC2)c1=O [Palbociclib]
- Plasma palbociclib concentration, Predose [Ctrough], geometric mean [2]: 88.5 ng/mL
- Dose proportionality of exposure ([3]; 125 mg vs 100 mg, part 1): higher than dose‐proportional exposure
- Tmax ([3]; 125 mg, single dose, n = 6, median (range)): 4.0 (3.9–8.0) h
- AUC(0-inf) ([3]; human, plasma, oral, 100 mg): 1040 ng·h/mL
- Cmax ([3]; human, plasma, oral, 100 mg): 41.4 ng/mL
- Tmax ([3]; human, plasma, oral, 100 mg): 5 h
- AUC(0-t) ([3]; human, plasma, oral, 100 mg, AUClast, single dose, n = 6): 972 ng·h/mL
- AUC(0-t) ([3]; human, plasma, oral, 100 mg, AUCτ (= AUC0–24), 100 mg once daily, multiple doses (day 8 of cycle 1), n = 6): 1280 ng·h/mL
- AUC(0-t) ([3]; human, plasma, oral, 100 mg, AUCτ (= AUC0–24), single dose, n = 6): 548 ng·h/mL
- half-life ([3]; human, plasma, oral, 100 mg, 100 mg once daily, multiple doses (day 8 of cycle 1), n = 6): 23.8 ± 6.8 h
- half-life ([3]; human, plasma, oral, 100 mg, single dose, n = 6): 25.7 ± 5.3 h
- AUC(0-inf) ([3]; human, plasma, oral, 125 mg): 2480 ng·h/mL
- Tmax ([3]; human, plasma, oral, 125 mg): 4 to 5 h
- concentration at 4 h ([3]; human, plasma, oral, 125 mg): 172 ng/mL
- AUC(0-t) ([3]; human, plasma, oral, 125 mg, AUClast, single dose, n = 6): 2400 ng·h/mL
- AUC(0-t) ([3]; human, plasma, oral, 125 mg, AUCτ (= AUC0–24), 125 mg once daily, multiple doses (day 8 of cycle 1), n = 6): 2840 ng·h/mL
- AUC(0-t) ([3]; human, plasma, oral, 125 mg, AUCτ (= AUC0–24), single dose, n = 6): 1320 ng·h/mL
- half-life ([3]; human, plasma, oral, 125 mg, 125 mg once daily, multiple doses (day 8 of cycle 1), n = 6): 23.2 ± 7.7 h
- half-life ([3]; human, plasma, oral, 125 mg, single dose, n = 6): 23.9 ± 2.7 h
- Plasma palbociclib concentration, Predose [Ctrough], geometric mean ([3]; palbociclib 125 mg alone, day 8 of part 1): 72.8 ng/mL
- Antitumor activity when combined with tamoxifen [4]: synergistic antitumor activity
- Retinoblastoma protein hyperphosphorylation [4]: inhibition of retinoblastoma protein hyperphosphorylation
- Tumor cell growth [4]: arrest tumor cell growth
- Patients with dose-limiting toxicity per dose level ([5]; 100 mg and 125 mg once daily, part 1, n = 6 each): one patient per dose level
- DLT ([5]; 100 mg once daily, patient: colon cancer): None
- DLT ([5]; 100 mg once daily, patient: rectal cancer): None
- DLT ([5]; 125 mg once daily, patient: esophageal cancer): None
- DLT ([5]; 125 mg once daily, patient: fibroma): None
- DLT ([5]; 125 mg once daily, patient: rectal cancer): None
- Any AE (treatment-related), All grades ([6]; 100 mg once daily): 6 (100) n (%)
- Any AE (treatment-related), Grade 3/4 ([6]; 100 mg once daily): 4 (67) n (%)
- Blood creatinine increased (treatment-related AE), All grades ([6]; 100 mg once daily): 2 (33) n (%)
- Blood creatinine increased (treatment-related AE), Grade 3/4 ([6]; 100 mg once daily): 0 (0) n (%)
- Diarrhea (treatment-related AE), All grades ([6]; 100 mg once daily): 0 (0) n (%)
- Diarrhea (treatment-related AE), Grade 3/4 ([6]; 100 mg once daily): 0 (0) n (%)
- Fatigue (treatment-related AE), All grades ([6]; 100 mg once daily): 0 (0) n (%)
- Fatigue (treatment-related AE), Grade 3/4 ([6]; 100 mg once daily): 0 (0) n (%)
- Lymphocytes decreased (treatment-related AE), All grades ([6]; 100 mg once daily): 1 (17) n (%)
- Lymphocytes decreased (treatment-related AE), Grade 3/4 ([6]; 100 mg once daily): 1 (17) n (%)
- Neutropenia (treatment-related), all grades ([6]; 100 mg once daily): 83%
- Neutropenia (treatment-related), grade 3/4 ([6]; 100 mg once daily): 67%
- Neutrophils decreased (treatment-related AE), All grades ([6]; 100 mg once daily): 5 (83) n (%)
- Neutrophils decreased (treatment-related AE), Grade 3/4 ([6]; 100 mg once daily): 4 (67) n (%)
- Platelets decreased (treatment-related AE), All grades ([6]; 100 mg once daily): 1 (17) n (%)
- Platelets decreased (treatment-related AE), Grade 3/4 ([6]; 100 mg once daily): 0 (0) n (%)
- WBCs decreased (treatment-related AE), All grades ([6]; 100 mg once daily): 4 (67) n (%)
- WBCs decreased (treatment-related AE), Grade 3/4 ([6]; 100 mg once daily): 2 (33) n (%)
- Any AE (treatment-related), All grades ([6]; 125 mg once daily): 5 (83) n (%)
- Any AE (treatment-related), Grade 3/4 ([6]; 125 mg once daily): 4 (67) n (%)
- Blood creatinine increased (treatment-related AE), All grades ([6]; 125 mg once daily): 0 (0) n (%)
- Blood creatinine increased (treatment-related AE), Grade 3/4 ([6]; 125 mg once daily): 0 (0) n (%)
- Diarrhea (treatment-related AE), All grades ([6]; 125 mg once daily): 2 (33) n (%)
- Diarrhea (treatment-related AE), Grade 3/4 ([6]; 125 mg once daily): 0 (0) n (%)
- Fatigue (treatment-related AE), All grades ([6]; 125 mg once daily): 2 (33) n (%)
- Fatigue (treatment-related AE), Grade 3/4 ([6]; 125 mg once daily): 0 (0) n (%)
- Lymphocytes decreased (treatment-related AE), All grades ([6]; 125 mg once daily): 3 (50) n (%)
- Lymphocytes decreased (treatment-related AE), Grade 3/4 ([6]; 125 mg once daily): 2 (33) n (%)
- Neutropenia (treatment-related), all grades ([6]; 125 mg once daily): 67%
- Neutropenia (treatment-related), grade 3/4 ([6]; 125 mg once daily): 33%
- Neutrophils decreased (treatment-related AE), All grades ([6]; 125 mg once daily): 4 (67) n (%)
- Neutrophils decreased (treatment-related AE), Grade 3/4 ([6]; 125 mg once daily): 2 (33) n (%)
- Platelets decreased (treatment-related AE), All grades ([6]; 125 mg once daily): 2 (33) n (%)
- Platelets decreased (treatment-related AE), Grade 3/4 ([6]; 125 mg once daily): 1 (17) n (%)
- WBCs decreased (treatment-related AE), All grades ([6]; 125 mg once daily): 5 (83) n (%)
- WBCs decreased (treatment-related AE), Grade 3/4 ([6]; 125 mg once daily): 2 (33) n (%)
- Grade ≥3 treatment-related non-hematologic AEs ([6]; all cohorts (100 mg, 125 mg, 125 mg + letrozole)): No grade ≥3 treatment‐related non‐hematologic AEs were observed
- Deaths ([6]; whole study, 18 patients): No deaths
- Patients with stable disease (advanced solid tumors; 100 mg, part 1, n = 6): three of six patients
- Best response (advanced solid tumors; [7]): Indeterminate
- Progression‐free survival (advanced solid tumors; [7]): 29 days
- Progression‐free survival (advanced solid tumors; 100 mg, part 1, patient: breast cancer (second listed)): 75 days
- Progression‐free survival (advanced solid tumors; 100 mg, part 1, patient: colon cancer): 29 days
- Progression‐free survival (advanced solid tumors; 100 mg, part 1, patient: medullary thyroid cancer): 57 days
- Progression‐free survival (advanced solid tumors; 100 mg, part 1, patient: ovarian cancer): 121 days
- Progression‐free survival (advanced solid tumors; 100 mg, part 1, patient: rectal cancer): 223 days
- Patients with stable disease (advanced solid tumors; 125 mg, part 1, n = 6): one of six patients
- Progression‐free survival (advanced solid tumors; 125 mg, part 1, patient: acinar cell carcinoma of pancreas): 29 days
- Progression‐free survival (advanced solid tumors; 125 mg, part 1, patient: breast cancer): 57 days
- Progression‐free survival (advanced solid tumors; 125 mg, part 1, patient: esophageal carcinoma): 280 days
- Progression‐free survival (advanced solid tumors; 125 mg, part 1, patient: fibroma): 28 days
- Progression‐free survival (advanced solid tumors; 125 mg, part 1, patient: inflammatory myofibroblastic tumor): 28 days
- Progression‐free survival (advanced solid tumors; 125 mg, part 1, patient: rectal cancer): 32 days
- DCR (objective response or stable disease ≥24 weeks) (advanced solid tumors; 100 or 125 mg, part 1): 17%
- Objective responses (CR or PR) (advanced solid tumors; 100 or 125 mg, part 1): not reported
- Patients with extended stable disease (≥24 weeks) (advanced solid tumors; part 1, 100- or 125-mg dose (rectal and esophageal cancer)): two patients
- Patients with stable disease (advanced solid tumors; part 1 overall (100 and 125 mg, n = 12)): Four patients had stable disease
